Data as given in patent US10829446B2, “Aryl sulfonohydrazides” (MONASH UNIVERSITY, priority 2015, dated 2020).

How the values were obtained:
Wild type pre B cells [1] = assay: Bioassay 7: pre-B cell number dose response, wild type; type: cell-based; conditions: B-cell, 96 h; wild type Pre B cells; 4 days
Description: Pre B cells are isolated from bone marrow according to the criterion: cell surface expression of B220, CD19, but not cKit or IgM. Pre-B cells are cultured on OP9 cells with IL7 in the presence of compounds at concentrations from 0.01 μM to 20 μM in vitro for 4 days. Cell number is then enumerated and an IC50 is calculated.

Wild type pre B cells [2] = assay: Bioassay 8: cell cycle analysis (DNA content and Ki67); type: cell-based; conditions: for cells in G0 / cells in G1 / cells in G2/M / cells in S: 1 μM
Description: Pre B cells are isolated from bone marrow according to the criterion: cell surface expression of B220, CD19, but not cKit or IgM. Pre-B cells are cultured on OP9 cells with IL7 in the presence of compounds at various concentrations. The stages of the cell cycle in cultured pre-B cells with and without treatment is analysed by flow cytometry using a stain for DNA content combined with the cell cycle marker Ki67 to enumerate the proportion of cells in different phases of the cell cycle.

Cc1cc(-c2ccccc2)cc(C(=O)NNS(=O)(=O)c2ccccc2)c1F [Compound 36]
IC50 (Wild type pre B cells [1]): 364 nM | cells in G0 (Wild type pre B cells [2]; cultured for 4 days): 14.5% | cells in G1 (Wild type pre B cells [2]; cultured for 4 days): 55.9% | cells in G2/M (Wild type pre B cells [2]; cultured for 4 days): 12.7% | cells in S (Wild type pre B cells [2]; cultured for 4 days): 15.6% | cells in G0 (Wild type pre B cells [2]; cultured for 6 days): 11.0% | cells in G1 (Wild type pre B cells [2]; cultured for 6 days): 66.6% | cells in G2/M (Wild type pre B cells [2]; cultured for 6 days): 9.0% | cells in S (Wild type pre B cells [2]; cultured for 6 days): 8.3% | number of cells in S phase down-regulated (Wild type pre B cells [2]; wild type pre-B cells): 40%
